Results from article PMC7031696 (Cell chemical biology, 2019).
Where two headings read alike, the source gives them in different places.

Experiments:
[1] = system: Plasmodium falciparum 3D7-A10 parasites; experiment: Stage specificity assay (8-h exposure of synchronized stages, IC50^8h); type: cell-based; settings: for IC50: Plasmodium falciparum
[2] = system: asynchronous 3D7-A10 parasite cultures; experiment: Standard 72-h exposure asexual blood stage susceptibility assay (IC50^72h); type: cell-based, Plasmodium falciparum; settings: Plasmodium falciparum, 3D7, 72 h, read-out: Overall (72hr assay) Mean IC50 (IC50^72h)
[3] = system: 3D7-MR4 trophozoite parasite-infected RBCs; experiment: Metabolomic profiling (hydrophilic metabolite changes, UHPLC-MS); type: cell-based, Plasmodium falciparum

- Ratio lowest IC50 8hr/IC50 72hr ([1]; 3D7-A10): 221.5
- IC50 ([1]; 3D7, read-out: Early rings IC50 (IC50^8h), 8-h exposure 0–8 hr, bound given in μM): > 25 µM
- IC50 ([1]; 3D7, read-out: Late rings IC50 (IC50^8h), 8-h exposure 8–16 hr, bound given in μM): > 25 µM
- IC50 ([1]; 3D7, read-out: Late trophozoites IC50 (IC50^8h), 8-h exposure 24–32 hr, bound given in μM): > 25 µM
- IC50 ([1]; 3D7, read-out: Schizonts IC50 (IC50^8h), 8-h exposure 32–40 hr, bound given in μM): > 25 µM
- IC50^8h relative to IC50^72h value ([1]; most susceptible stages): > 28 fold
- IC50 [2]: 0.0568 µM
SMILES: Cc1ccc(Oc2ncccc2C(=O)Nc2cccc3cccnc23)c(C)c1 [MMV020746]
- IC50 ([1]; 3D7, read-out: Early trophozoites Mean IC50 (IC50^8h), 8-h exposure 16–24 hr, 3D7-A10, survival at 60 h): 12.6 µM
- peptide levels (hemoglobin catabolism signature) ([3]; 10 × IC50^72h, 2.5 hr, trophozoites): decreased peptide levels
- Log2(fold changes) 3-phosphoglycerate ([3]; metabolite 3-phosphoglycerate, log2 fold change): -0.8487
- Log2(fold changes) 4-Pyridoxic acid ([3]; metabolite 4-Pyridoxic acid, log2 fold change): -0.4495
- Log2(fold changes) 4-aminobutyrate ([3]; metabolite 4-aminobutyrate, log2 fold change): -0.1236
- Log2(fold changes) 4-phosphopantetheine ([3]; metabolite 4-phosphopantetheine, log2 fold change): 0.0000
- Log2(fold changes) 4-phosphopantothenate ([3]; metabolite 4-phosphopantothenate, log2 fold change): -0.7722
- Log2(fold changes) 5-aminopentanoic acid ([3]; metabolite 5-aminopentanoic acid, log2 fold change): 0.0000
- Log2(fold changes) 5-methyl-THF ([3]; metabolite 5-methyl-THF, log2 fold change): 0.0000
- Log2(fold changes) 5-phosphoribosyl-1-pyrophosphate ([3]; metabolite 5-phosphoribosyl-1-pyrophosphate, log2 fold change): 0.0000
- Log2(fold changes) 6-phospho-D-gluconate ([3]; metabolite 6-phospho-D-gluconate, log2 fold change): -0.3888
- Log2(fold change) HVDD ([3]; metabolite HVDD): -4.2936
- Log2(fold change) Hydroxyisocaproic acid ([3]; metabolite Hydroxyisocaproic acid): 0.0000
- Log2(fold change) IDP ([3]; metabolite IDP): 0.0000
- Log2(fold change) IMP ([3]; metabolite IMP): -0.0604
- Log2(fold change) Inositol ([3]; metabolite Inositol): 0.0000
- Log2(fold change) Isopentyl-PP ([3]; metabolite Isopentyl-PP): -0.6932
- Log2(fold change) L-arginino-succinate ([3]; metabolite L-arginino-succinate): -0.2156
- Log2(fold change) LD ([3]; metabolite LD): 0.1860
- Log2(fold change) Myristoyl/tetradecanoyl-CoA ([3]; metabolite Myristoyl/tetradecanoyl-CoA): 0.0000
- Log2(fold change) N-Acetyl-L-alanine ([3]; metabolite N-Acetyl-L-alanine): 0.0990
- Log2(fold change) N-acetyl-L-ornithine ([3]; metabolite N-acetyl-L-ornithine): -1.5863
- Log2(fold change) N-acetyl-glucosamine-1/6-phosphate ([3]; metabolite N-acetyl-glucosamine-1/6-phosphate): 0.3354
- Log2(fold change) N-acetyl-glutamate ([3]; metabolite N-acetyl-glutamate): -0.0291
- Log2(fold change) N-acetyl-glutamine ([3]; metabolite N-acetyl-glutamine): 0.3326
- Log2(fold change) N-carbamoyl-L-aspartate ([3]; metabolite N-carbamoyl-L-aspartate): -0.0111
- Log2(fold change) NAD+ ([3]; metabolite NAD+): -0.2290
- Log2(fold change) NADH ([3]; metabolite NADH): 3.2383
- Log2(fold change) NADP+ ([3]; metabolite NADP+): -0.2621
- Log2(fold change) NADPH ([3]; metabolite NADPH): 2.9387
- Log2(fold change) O-acetyl-L-serine ([3]; metabolite O-acetyl-L-serine): -0.1299
- Log2(fold change) Octoluse 8/1P ([3]; metabolite Octoluse 8/1P): -0.0750
- Log2(fold change) Octoluse Bisphosphate ([3]; metabolite Octoluse Bisphosphate): 0.1477
- Log2(fold change) PD ([3]; metabolite PD): -2.6591
- Log2(fold change) PE ([3]; metabolite PE): -2.3902
- Log2(fold change) PEE ([3]; metabolite PEE): -2.3026
- Log2(fold change) PEEK ([3]; metabolite PEEK): -2.5604
- Log2(fold change) PVNF ([3]; metabolite PVNF): -4.8059
- Log2(fold change) Pyroglutamic acid ([3]; metabolite Pyroglutamic acid): 0.1917
- Log2(fold change) Pyrophosphate ([3]; metabolite Pyrophosphate): 0.0000
- Log2(fold change) Ribose-5-phosphate ([3]; metabolite Ribose-5-phosphate): -0.7820
- Log2(fold change) S-adenosyl-L-homocysteine ([3]; metabolite S-adenosyl-L-homocysteine): -0.0800
- Log2(fold change) S-adenosyl-L-methioninamine ([3]; metabolite S-adenosyl-L-methioninamine): -2.2715
- Log2(fold change) S-adenosyl-L-methionine ([3]; metabolite S-adenosyl-L-methionine): 0.0000
- Log2(fold change) S-methyl-5'-thioadenosine ([3]; metabolite S-methyl-5'-thioadenosine): 0.5248
- Log2(fold change) SD ([3]; metabolite SD): -1.2335
- Log2(fold change) SDL ([3]; metabolite SDL): 0.0000
- Log2(fold change) SID ([3]; metabolite SID): -1.9821
- Log2(fold change) Sedoheptulose bisphosphate ([3]; metabolite Sedoheptulose bisphosphate): -0.9337
- Log2(fold change) Thiamine pyrophosphate ([3]; metabolite Thiamine pyrophosphate): -0.1414
- Log2(fold changes) UDP-D-glucose ([3]; metabolite UDP-D-glucose, log2 fold change): 0.0347
- Log2(fold changes) UDP-D-glucuronate ([3]; metabolite UDP-D-glucuronate, log2 fold change): -0.1265
- Log2(fold changes) UDP-N-acetyl-glucosamine ([3]; metabolite UDP-N-acetyl-glucosamine, log2 fold change): -0.1353
- Log2(fold changes) UDP ([3]; metabolite UDP, log2 fold change): -0.5234
- Log2(fold changes) UMP ([3]; metabolite UMP, log2 fold change): 0.1786
- Log2(fold changes) UTP ([3]; metabolite UTP, log2 fold change): 0.0000
- Log2(fold change) hydroxyphenylpyruvate ([3]; metabolite hydroxyphenylpyruvate): 0.0000
- Log2(fold change) hydroxyproline/Aminolevulinate ([3]; metabolite hydroxyproline/Aminolevulinate): -0.2593
- Log2(fold change) hypoxanthine ([3]; metabolite hypoxanthine): 0.0518
- Log2(fold change) indole ([3]; metabolite indole): 0.0000
- Log2(fold change) inosine ([3]; metabolite inosine): -0.1327
- Log2(fold change) isoleucine ([3]; metabolite isoleucine): 0.0000
- Log2(fold change) lactate ([3]; metabolite lactate): -0.6990
- Log2(fold change) leucine ([3]; metabolite leucine): 0.0000
- Log2(fold change) lysine ([3]; metabolite lysine): -2.2531
- Log2(fold change) malate ([3]; metabolite malate): -0.6987
- Log2(fold change) maleic acid ([3]; metabolite maleic acid): -0.7709
- Log2(fold change) methionine ([3]; metabolite methionine): -0.0286
- Log2(fold change) myo-inositol ([3]; metabolite myo-inositol): -0.7655
- Log2(fold change) nicotinamide mononucleotide ([3]; metabolite nicotinamide mononucleotide): -0.5765
- Log2(fold change) nicotinate ([3]; metabolite nicotinate): -0.1328
- Log2(fold change) ornithine ([3]; metabolite ornithine): -0.3857
- Log2(fold change) orotate ([3]; metabolite orotate): -0.1387
- Log2(fold change) orotidine-5'-phosphate ([3]; metabolite orotidine-5'-phosphate): 0.0782
- Log2(fold change) oxaloacetate ([3]; metabolite oxaloacetate): -0.6442
- Log2(fold change) p-aminobenzoate ([3]; metabolite p-aminobenzoate): 0.0000
- Log2(fold change) p-hydroxybenzoate ([3]; metabolite p-hydroxybenzoate): 0.0000
- Log2(fold change) pantothenate ([3]; metabolite pantothenate): -0.1112
- Log2(fold change) phenylalanine ([3]; metabolite phenylalanine): -0.4829
- Log2(fold change) phenylpyruvate ([3]; metabolite phenylpyruvate): 0.0000
- Log2(fold change) phosphoenolpyruvate ([3]; metabolite phosphoenolpyruvate): -0.5858
- Log2(fold change) prephenate ([3]; metabolite prephenate): -0.3824
- Log2(fold change) proline ([3]; metabolite proline): -0.5702
- Log2(fold change) pyridoxine ([3]; metabolite pyridoxine): -0.1642
- Log2(fold change) pyruvate ([3]; metabolite pyruvate): -1.5001
- Log2(fold change) riboflavin ([3]; metabolite riboflavin): 0.4413
- Log2(fold change) ribose ([3]; metabolite ribose): -0.0174
- Log2(fold change) ribose-phosphate ([3]; metabolite ribose-phosphate): -1.1321
- Log2(fold change) ribulose-5-phosphate ([3]; metabolite ribulose-5-phosphate): -0.7375
- Log2(fold change) serine ([3]; metabolite serine): -0.1379
- Log2(fold change) sn-glycerol-3-phosphate ([3]; metabolite sn-glycerol-3-phosphate): 0.0529
- Log2(fold change) succinate/Methylmalonic acid ([3]; metabolite succinate/Methylmalonic acid): -0.5504
- Log2(fold change) succinyl-CoA/methylmalonyl-CoA ([3]; metabolite succinyl-CoA/methylmalonyl-CoA): 0.0000
- Log2(fold change) taurine ([3]; metabolite taurine): 0.3831
- Log2(fold change) thiamine ([3]; metabolite thiamine): -0.5873
- Log2(fold change) threonine/homoserine ([3]; metabolite threonine/homoserine): -0.5084
- Log2(fold change) thymidine ([3]; metabolite thymidine): 0.0000
- Log2(fold changes) thymine ([3]; metabolite thymine, log2 fold change): 0.0000
- Log2(fold changes) trehalose-6-Phosphate ([3]; metabolite trehalose-6-Phosphate, log2 fold change): 0.0000
- Log2(fold changes) tryptophan ([3]; metabolite tryptophan, log2 fold change): -0.7516
- Log2(fold changes) tyrosine ([3]; metabolite tyrosine, log2 fold change): -0.2515
- Log2(fold changes) uridine ([3]; metabolite uridine, log2 fold change): 0.0000
